Article PMC11513892, “Discovery of a Series of Macrocycles as Potent Inhibitors of Leishmania Infantum” (Journal of Medicinal Chemistry, 2024)
Like-named read-outs stand apart in the source and are kept apart here.

Experiments:
[1] = Kinetic solubility in phosphate buffered saline at pH 7.4; assay type: physicochemical
Experimental: (§1) The kinetic solubility in phosphate buffered saline at pH 7.4, chromatographic Log D at pH 7.4, cell permeability across a MDCK-MDR1 cell monolayer at pH 7.4, and the clearance in mouse liver microsomes of 1–12 was determined at TCG Lifesciences.

[2] = tested on: T. b. brucei; test: Growth of T. b. brucei trypomastigotes in axenic culture; assay type: cell-based; details: Trypanosoma brucei
Excerpt: (§2) We previously reported the synthesis of a series of macrocycles, including 1 (Figure 2A), designed to investigate how structural features influence molecular chameleonicity.[15],[21] Originating from the structural similarities between 1 and hymenocardine, we investigated 1 in screens for P. falciparum and four kinetoplastid parasites: T. b. brucei, T. b. rhodesiense, T. cruzi, and L. infantum. In the screens, we also included compounds 2 and 3 (Figure 2A), which were obtained from an intermediate late in the synthetic route to 1. Since very few validated protein targets relevant to clearance of parasites are known, phenotypic assays were used to investigate the antiparasitic activity for all five parasites. For malaria, the P. falciparum blood stage 3D7 strain was used to test the three compounds. For the two Trypanosoma brucei species, the reduction in trypomastigote growth in culture medium was determined after the addition of 1–3. For T. cruzi, the intracellular parasite growth in infected human fibroblasts (MRC-5 cell line) was assessed in the presence and absence of the three inhibitors. Similarly, the growth of L. infantum was assessed in infected primary mouse macrophages (PMMs) in the presence and absence of the inhibitors. […] The assays for T. cruzi and L. infantum are complex, i.e., they determine the degree of inhibition of parasitic replication in a mammalian cell line; this complexity may lead to a high variability for some compounds.
(§3) The growth of the P. falciparum blood stage 3D7 strain,[53] the two T. brucei species in axenic cultures,[54]T. cruzi in infected human fibroblasts (MRC-5 cell line),[55] and of L. infantum in infected primary mouse macrophages (PMMs)[56] was determined as previously reported in the presence and absence of inhibitors 1–12.

[3] = tested on: T. cruzi; test: Intracellular growth of T. cruzi in infected human fibroblasts (MRC-5 cell line); assay type: cell-based; details: Trypanosoma cruzi
Excerpt: as §2, §3

[4] = Clearance in mouse liver microsomes; assay type: in vitro ADME; details: for microsomal CLint: mouse, liver microsomes
Experimental: as §1

[5] = tested on: L. infantum; test: Growth of L. infantum in infected primary mouse macrophages (PMMs), phenotypic assay; assay type: cell-based, Leishmania infantum; details: for EC50: Leishmania infantum, Macrophage; for loss in potency compared to 3, L. infantum: relative to compound 3
Excerpt: as §2
(§4) The potency of macrocycles 1–12 to inhibit the growth of L. infantum was determined in a phenotypic assay in which the parasite was grown in primary peritoneal mouse macrophages (PMMs). To understand whether the SAR for inhibition of parasitic growth is impacted by low cell permeability, the permeability of compounds 1–12 was determined separately. Madin-Darby canine kidney (MDCK) cells transfected with the human MDR1 (multidrug resistance 1) gene (MDCK-MDR1 cells) were used to determine permeabilities in the apical to basolateral direction (Papp AB) as well as efflux ratios (ERs). […] Lipophilicity (Log D at pH 7.4), aqueous kinetic solubility and mouse liver microsomal metabolism were also determined for 1–12, and are discussed separately (cf. physiochemical properties and ADMET, below).
as §3

[6] = tested on: T. b. rhodesiense; test: Growth of T. b. rhodesiense trypomastigotes in axenic culture; assay type: cell-based, Trypanosoma brucei rhodesiense; details: Trypanosoma brucei
Excerpt: as §2, §3

[7] = tested on: primary mouse macrophages (PMMs); test: Host cell cytotoxicity in primary mouse macrophages (PMM); assay type: cell-based; details: CSV supplement; decimal comma
[8] = tested on: MRC-5 cells; test: Host cell cytotoxicity in MRC-5 cells; assay type: cell-based, human; details: CSV supplement; decimal comma
[9] = tested on: MDR1; test: in vitro; assay type: in vitro ADME, canine; details: dog; for Papp B→A: MDCK-MDR1, pH 7.4; for Papp A→B: MDCK-MDR1, pH 7.4, Papp AB
Experimental: as §4, §1

[10] = Chromatographic Log D at pH 7.4; assay type: physicochemical; details: 1-octanol/PBS pH 7.4, determined by chromatography, mean of two measurements
Experimental: as §1

[11] = phosphate buffered saline, pH 7.4, CSV supplement, read-out: Kinetic solubility
[12] = phosphate buffered saline, pH 7.4, phosphate buffered saline pH 7.4, assay range 2.5–200 μM, read-out: solubility (kinetic)
[13] = CSV supplement, decimal comma, read-out: EC50 T.b. brucei Squib 427
[14] = TULAHUEN, MRC5, read-out: EC50 T. cruzi Tulahuen C4 (LacZ)
[15] = CSV supplement, read-out: CLint in vitro Mouse Microsomes
[16] = incubation with mouse liver microsomes, read-out: CLint
[17] = Table 1, mean (standard deviation, number of measurements), read-out: EC50 (μM), inhibition of the growth of L. infantum
[18] = RHODESIENSE / STIB900, CSV supplement, decimal comma, read-out: EC50 T.b. rhodesiense STIB 900
[19] = MDCK-MDR1, pH 7.4, ER, efflux ratio (BA/AB)
[20] = MDCK-MDR1, pH 7.4, MDCK MDR1 - pH 7.4 Efflux Ratio
[21] = MRC5, Table S1, mean (SD), 2 to 14 measurements, unit not given in Table S1, read-out: In vitro potency, T. cruzi
[22] = CSV supplement, decimal comma, read-out: EC50 L. infantum MHOM/MA(BE)/67
[23] = Table S1, mean (SD), 2 to 14 measurements, unit not given in Table S1, read-out: In vitro potency, T. b. brucei
[24] = RHODESIENSE, Table S1, mean (SD), 2 to 14 measurements, unit not given in Table S1, read-out: In vitro potency, T. b. rhodesiense

SMILES	solubility kinetic [1, 11]	solubility kinetic [1, 12]	EC50 [2, 13]	EC50 [3, 14]	t(1/2), Mouse Microsomes ([4]; CSV supplement)	microsomal CLint [4, 15]	microsomal CLint [4, 16]	EC50 [5, 17]	EC50 [6, 18]	PMM Primary Mouse Macrophages (inf-LMPH) (cytotoxicity) [7]	MRC-5 cells Human Lung Fibroblast Cells (cytotoxicity) [8]	Papp B→A [9]	efflux ratio [9, 19]	efflux ratio [9, 20]	Papp A→B [9]	chromatographic logD [10]	EC50 [3, 21]	EC50 [5, 22]	loss in potency compared to 3, L. infantum [5]	EC50 [2, 23]	further results
CC(C)(C)OC(=O)N[C@H]1Cc2ccc(cc2)Oc2ccc(cc2NC(=O)c2ccccn2)C(=O)CNC(=O)[C@@H](Cc2ccccc2)NC1=O [Compound 8, tert-Butyl ((8R,11S)-8-Benzyl-4,7,10-trioxo-3^2-(picolinamido)-2-oxa-6,9-diaza-1,3(1,4)-dibenzenacyclododecaphane-11-yl)carbamate]	1.9 µg/mL	2.9 µM	8.1 µM	6.1 µM	<3 min	> 578 µL/min/mg	> 580 µL/min/mg	8.2 µM	6.4 µM	>64 µM	>64 µM	22.3 ×10⁻⁶ cm/s	7.6	7.6	2.9 ×10⁻⁶ cm/s	4.8					
CCCCCCCCCCCCCCCCOP(=O)([O-])OCC[N+](C)(C)C [Miltefosine, miltefosine, reference compound]								6.1 µM													
C[C@@H]1NC(=O)[C@@H](NC(=O)OC(C)(C)C)Cc2ccc(cc2)Oc2ccc(cc2NC(=O)c2ccccn2)C(=O)CNC1=O [Compound 7, tert-Butyl ((8S,11S)-8-Methyl-4,7,10-trioxo-3^2-(picolinamido)-2-oxa-6,9-diaza-1,3(1,4)-dibenzenacyclododecaphane-11-yl)carbamate]	73.7 µg/mL	> 100 µM	49 µM	35.5 µM	5,8 min	297 µL/min/mg	300 µL/min/mg	16 µM	9.7 µM	>64 µM	>64 µM	39.3 ×10⁻⁶ cm/s	28	28.3	1.4 ×10⁻⁶ cm/s	3.5	36 µM	15.5 µM	~10 fold		solubility kinetic ([1]; phosphate buffered saline pH 7.4, assay range 2.5–200 μM, read-out: solubility (kinetic)): 126 µM
CC(=O)N[C@H]1Cc2ccc(cc2)Oc2ccc(cc2NC(=O)c2ccccn2)C(=O)CNC(=O)[C@H](Cc2ccccc2)NC1=O [Compound 11]	58.3 µg/mL	96 µM	26.8 µM	33 µM	12,9 min	134 µL/min/mg	130 µL/min/mg	38 µM	23.6 µM	>64 µM	>64 µM	17.8 ×10⁻⁶ cm/s			1.1 ×10⁻⁶ cm/s	3.2		37.5 µM	> 20 fold	36 µM	EC50 [6, 24]: 24 µM; efflux ratio ([9]; MDCK-MDR1, pH 7.4, CSV supplement, pH 7.4, read-out: MDCK MDR1 - pH 7.4 Efflux Ratio): 15.7; efflux ratio ([9]; MDCK-MDR1, pH 7.4, MDCK-MDR1 cell monolayer, read-out: ER, efflux ratio (BA/AB)): 16
CC(C)(C)C(=O)N[C@H]1Cc2ccc(cc2)Oc2ccc(cc2NC(=O)c2ccccn2)C(=O)CNC(=O)[C@H](Cc2ccccc2)NC1=O [Compound 12, tert-Butyl ((8S,11S)-8-Benzyl-4,7,10-trioxo-11-pivalamido-2-oxa-6,9-diaza-1,3(1,4)-dibenzenacyclododecaphane-3^2-yl)picolinamide]	10.3 µg/mL	16 µM	30.4 µM	> 64 µM	<3 min	> 578 µL/min/mg	> 580 µL/min/mg	7.1 µM	21.3 µM	>64 µM	>64 µM	31.8 ×10⁻⁶ cm/s	21	20.8	1.5 ×10⁻⁶ cm/s	4.4	64 µM			30 µM	EC50 [6, 24]: 21 µM
